Laboratory results: patent US5817669A, “Compounds, processes for the preparation thereof and anti-tumor agents” (Dainippon Pharmaceutical Co., Ltd., priority 1994, dated 1998)
Read-outs that look alike come from different tables or passages of the source.

Assays:
[1] = tested on: tumor; conditions: Cancer Research 52, 2818 (1992); cited from earlier work
[2] = tested on: murine P388 lymphocytic leukemia cells; assay: In vitro anti-tumor activity against murine P388 lymphocytic leukemia cells (MTT, 72 h); assay type: cell-based; conditions: Mus musculus; murine P388 cells, 72 h, MTT; read-out: IC50 (50% proliferation inhibitory concentration)
Outline: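 MTT assay, 72 h exposure; formazan dissolved in DMSO after centrifugation and supernatant removal. Absorbance read at 570 nm with 690 nm reference. IC50 (μg/ml) by least squares.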

[3] = tested on: KB human nasopharynx cancer; assay: In vitro anti-tumor activity against KB human nasopharynx cancer (MTT); assay type: cell-based; conditions: KB, 72 h, MTT, read-out: IC50
Outline: (§1)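 500–2,000 cells per well were pre-cultured 20 h at 37° C, 5% CO2, then exposed to test compound for 72 h. MTT (5 mg/ml) was added for 4 h, supernatant removed and formazan dissolved in DMSO.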

[4] = tested on: HMV2 human melanoma; assay: In vitro anti-tumor activity against HMV-2 human melanoma (MTT); assay type: cell-based; conditions: HMV-2, 72 h, MTT, read-out: IC50
Outline: as §1

[5] = tested on: AZ521 human stomach cancer; assay: In vitro anti-tumor activity against AZ-521 human stomach cancer (MTT); assay type: cell-based; conditions: AZ-521, 72 h, MTT, read-out: IC50
Outline: as §1

[6] = tested on: MKN45 human stomach cancer; assay: In vitro anti-tumor activity against MKN45 human stomach cancer (MTT); assay type: cell-based; conditions: MKN-45, MKN45, 72 h, MTT, read-out: IC50
Outline: as §1

[7] = tested on: WiDr human colorectal cancer; assay: In vitro anti-tumor activity against WiDr human colorectal cancer (MTT); assay type: cell-based; conditions: 72 h, MTT, read-out: IC50
Outline: as §1

[8] = tested on: C33A human cervix cancer; assay: In vitro anti-tumor activity against C-33A human cervix cancer (MTT); assay type: cell-based; conditions: C-33A, 72 h, MTT, read-out: IC50
Outline: as §1

[9] = tested on: A427 human lung cancer; assay: In vitro anti-tumor activity against A-427 human lung cancer (MTT); assay type: cell-based; conditions: A-427, 72 h, MTT, read-out: IC50
Outline: as §1

[10] = tested on: murine P388 lymphocytic leukemia cells; assay: Increases in life span of mice implanted with murine P388 lymphocytic leukemia cells; assay type: in vivo, SLC: BDF1 mice; conditions: Mus musculus, P388, ip, 720 h, ip
[11] = tested on: colon 26 murine tumor cells; assay: Tumor growth inhibition effect on colon 26 murine tumor cells implanted mice; assay type: in vivo, SLC: CDF1 mice; conditions: Mus musculus, Colon 26, 504 h; ip, 3.13 mg/kg once a day, days 1-9; day 21 or 22; read-out: Tumor growth inhibition rate IR (%)
Outline: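 CDF1 female mice (7–9 weeks, 7 per group) implanted intracutaneously in the abdomen with 2% brei of colon 26 cells. Compound given ip once daily from day 1 to day 9. Tumor weight estimated from diameters on day 21 or 22; IR % = [1 − (treated MTW/control MTW)] × 100.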

[12] = Acute toxicity; conditions: mouse, in vivo, mice, 14th day
Procedure: Solutions of test compounds in predetermined concentrations were administered (0.1 ml/10 g body weight) to female BALB/c CrSlc mice (5 to 10 animals per one group, 10 weeks old) respectively, and, thus, LD50 values were calculated from the mortalities of the mice on the 14th day after the administration.

[13] = Solubility; conditions: water
[14] = NCI criterion, read-out: Evaluation
[15] = days 1 and 5, in solution, read-out: ILS (%) (in solution)
[16] = days 1 and 5, in suspension, read-out: ILS (%) (in suspension)

Question: For `NCC1CCN(c2c(F)cc3c(=O)c(C(=O)O)cn(C4CC4)c3c2F)C1` (stereo not shown) [Compound G], which “anti-tumor activity, in words” value [1] is on record?
Answer: Its value is “has anti-tumor activity”.

Question: Which IC50 [2] does the source give for `Cl.NC1CCN(c2ccc3c(=O)c(C(=O)O)cn(-c4nccs4)c3n2)C1` (stereo not shown) [Compound 3, 7-(3-amino-1-pyrrolidinyl)-1,4-dihydro-4-oxo-1-(2-thiazolyl)-1,8-naphthyridine-3-carboxylic acid hydrochloride] here?
Answer: Its IC50 is 0.0103 µg/mL.

Question: What about the IC50 [3] of the same compound?
Answer: The IC50 was 0.153 µg/mL.

Question: What about the IC50 [4] of the same compound?
Answer: The IC50 was 0.21 µg/mL.

Question: What about the IC50 [5] of the same compound?
Answer: Its IC50 is 0.181 µg/mL.

Question: What about the IC50 [6] of the same compound?
Answer: Its IC50 is 0.364 µg/mL.

Question: What about the IC50 [7] of the same compound?
Answer: Its IC50 is 1.08 µg/mL.

Question: And the IC50 [8]?
Answer: Its IC50 is 0.184 µg/mL.

Question: And the IC50 [9]?
Answer: Its IC50 is 0.0588 µg/mL.

Question: And the ILS at 1.56 mg/kg [10, 14]?
Answer: The ILS at 1.56 mg/kg was 20 to 74%.

Question: What about the ILS at 3.13 mg/kg [10, 14] of the same compound?
Answer: Its ILS at 3.13 mg/kg is > 75%.

Question: What about the ILS at 6.25 mg/kg [10, 14] of the same compound?
Answer: The ILS at 6.25 mg/kg was > 75%.

Question: And the ILS at 12.5 mg/kg [10, 14]?
Answer: Its ILS at 12.5 mg/kg is > 75%.

Question: What about the ILS at 25 mg/kg [10, 14] of the same compound?
Answer: Its ILS at 25 mg/kg is > 75%.

Question: And the ILS at 1.56 mg/kg [10, 15]?
Answer: Its ILS at 1.56 mg/kg is 63%.

Question: And the ILS at 3.13 mg/kg [10, 15]?
Answer: Its ILS at 3.13 mg/kg is 75%.

Question: And the ILS at 3.13 mg/kg [10, 16]?
Answer: Its ILS at 3.13 mg/kg is 88%.

Question: What about the ILS at 6.25 mg/kg [10, 15] of the same compound?
Answer: Its ILS at 6.25 mg/kg is 113%.

Question: And the ILS at 12.5 mg/kg [10, 15]?
Answer: The ILS at 12.5 mg/kg was 188%.

Question: And the ILS at 12.5 mg/kg [10, 16]?
Answer: The ILS at 12.5 mg/kg was 175%.

Question: And the ILS at 25 mg/kg [10, 15]?
Answer: Its ILS at 25 mg/kg is > 275%.

Question: And the inhibition in vivo at 3.13 mg/kg [11]?
Answer: The inhibition in vivo at 3.13 mg/kg was 77%.

Question: What about the LD50 at 336 h ([12]; Intraperitoneal administration (ip)) of the same compound?
Answer: Its LD50 at 336 h is 55.2 mg/kg.

Question: And the LD50 at 336 h ([12]; Intravenous administration (iv))?
Answer: Its LD50 at 336 h is 119 mg/kg.

Question: What about the solubility [13] of the same compound?
Answer: The solubility was 8300 µg/mL.
